The target in one series is T1, ETBR (Homo sapiens, UniProt P24530).
T1 sequence (P24530 27-442): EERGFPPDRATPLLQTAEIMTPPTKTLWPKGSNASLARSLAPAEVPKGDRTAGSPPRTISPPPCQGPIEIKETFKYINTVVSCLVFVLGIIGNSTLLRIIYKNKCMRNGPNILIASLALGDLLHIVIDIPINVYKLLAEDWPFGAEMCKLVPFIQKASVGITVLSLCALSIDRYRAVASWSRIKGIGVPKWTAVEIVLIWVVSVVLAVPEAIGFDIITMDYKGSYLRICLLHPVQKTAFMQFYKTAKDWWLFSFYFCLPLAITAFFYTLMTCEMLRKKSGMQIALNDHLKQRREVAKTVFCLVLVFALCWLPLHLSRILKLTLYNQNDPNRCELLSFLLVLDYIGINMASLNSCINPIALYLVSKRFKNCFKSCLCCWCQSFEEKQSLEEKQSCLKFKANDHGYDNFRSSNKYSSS
To be noted: ETBR antagonist, no method given, cited from earlier work.

Series [1] has as its system SKMEL28 human melanoma cells. The experiment in a line: SKMEL28 human melanoma xenograft in mice, tumor weight and lung metastases. The class given is in vivo. Here is the method:
BQ788 inhibits melanoma growth and metastasis (FIGS. 4A and 4B). […] Mice were implanted with 1×10^6 SKMEL28 human melanoma cells. Tumors were established for 10 days until palpable then 120 ng ([…]) BQ788 dissolved in DMSO was injected IP 3× per week x 6 weeks. Mice were then sacrificed and lungs harvested and tumors weighed. A 75% reduction in tumor weight was observed.

Series [2] is described as follows: Body weight of athymic nude mice under intranasal BQ788 over 42 days. The class given is in vivo. Here is the method:
FIG. 9. ETAR antagonist and Niacinamide mitigate weight loss from BQ788. Six week old athymic nude mice were administered the ETBR antagonist BQ788 intranasally in 20% DMSO at the indicated ascending doses over a period of 42 days. One group was additionally administered the ETAR antagonist Macitentan orally at a dose of 5 mg/kg daily. The drinking water of these mice was supplemented with the B vitamin niacinamide at a concentration of 0.3 mg/mL. […] Animals thus treated were able to maintain body weight throughout the study. Co-administration of ETAR antagonists and niacinamide with ETBR antagonists mitigated the adverse effects of ETBR antagonists when administered for therapeutic purposes.
ETAR antagonist and Niacinamide mitigate weight loss from BQ788 ([…]). Six week old athymic nude mice (n=3 per group) were administered the ETBR antagonist BQ788 intranasally in 20% DMSO at the indicated ascending doses over a period of 42 days. One group was additionally administered the ETAR antagonist Macitentan orally at a dose of 5 mg/kg daily. The drinking water of these mice was supplemented with the B vitamin niacinamide at a concentration of 0.3 mg/mL. […] Animals thus treated were able to maintain body weight throughout the study. […]

For series [3], the system named is A375 human melanoma cells. The experiment in a line: Subcutaneous A375 human melanoma xenograft in Nu/J nude mice. Type of series: in vivo. To be noted: Dabrafenib 100 mg/Kg PO daily, alone or with BQ788 600 ng IP TIW; A375 tumors 150-200 mm3 at start. Here is the method: FIG. 7. BQ788 synergizes with Dabrafenib in vivo. A375 human melanoma cells were implanted subcutaneously into the rear flank of Nu/J nude mice and allowed to grow to 150 mm3-200 mm3 prior to randomization and initiation of treatment. The mice received the following treatments: (1) vehicle (n=8), (2) Dabrafenib 100 mg/Kg PO daily (n=5), and (3) Dabrafenib+BQ788 600 ng IP TIW (n=5).
BQ788 synergizes with a bRAF inhibitor in vivo (FIG. 7). A375 human melanoma cells (3×10^6) were implanted subcutaneously into the rear flank of Nu/J nude mice and allowed to grow to 150 mm3-200 mm3 prior to randomization and initiation of treatment. The treatment groups were as follows: (1) vehicle (n=8), Dabrafenib 100 mg/Kg PO daily (n=5), (2) Dabrafenib+BQ788 600 ng IP 3 x per week (n=5).
In general terms: Xenograft models place foreign cells or tissue in a host animal.

The test system of series [4] is melanoma cell lines overexpressing ETBR. The experiment in a line: Mouse melanoma brain metastasis model, xenografts of ETBR-overexpressing melanoma cell lines. The class given is in vivo, mice. Particulars: A192621 60 mg/kg/day. Here is the method:
FIGS. 5A, 5B, 5C, 5D, and 5E. ETBR antagonist inhibits melanoma brain metastasis in mice. […] In this study, lentiviral vectors were used to overexpress ETBR in melanoma cell lines, which were in turn used to implant xenografts in mice.
A192621 inhibits melanoma brain metastasis in mice (FIGS. 5A, 5B, 5C, 5D, and 5E). […] A192621 was administered at a dose of 60 mg/kg/day using a mouse melanoma model. […] In this study, lentiviral vectors were used to overexpress ETBR in melanoma cell lines, which were in turn used to implant xenografts in mice. […]

Broadly, the IC50 is the concentration at which inhibition is half-maximal. For orientation: Ki means a dissociation constant, usually derived from enzyme kinetics or from competition with a known ligand.

“Also recorded” adds a separate entry of the source.

`CCCC[C@@H](NC(=O)[C@@H](Cc1cn(C(=O)OC)c2ccccc12)NC(=O)[C@H](CC(C)(C)C)NC(=O)N1[C@H](C)CCC[C@@H]1C)C(=O)[O][Na+]` [BQ788]: at ETBR (for BQ788 printed as inhibitor of ETBR-related melanoma cell growth), the IC50 is 1.2 nM. Moreover, the Ki at ETBR is 17.8 nM. Besides, the “reduction in tumor weight” value in series [1] (120 ng (~60 μg/kg) BQ788 in DMSO IP 3x per week x 6 weeks, SKMEL28 tumors in mice) was found to be 75%. In addition, the “clearance of lung metastases” value in series [1] (120 ng BQ788 IP 3x per week x 6 weeks, lung specimens vs control mice) is reported as > 95%. Besides, the “average weight loss relative to baseline body weight” value in series [2] (BQ788 alone intranasally in 20% DMSO, ascending doses, end of 42 day study) is on record as 5%. For the same compound, the “effect on body weight / thriving” value in series [2] (BQ788 intranasally, ascending doses over 42 days, with or without Macitentan 5 mg/kg orally daily and niacinamide 0.3 mg/mL in drinking water) is recorded as “failed to thrive”.

For `CC(C)(C)c1nc(-c2cccc(NS(=O)(=O)c3c(F)cccc3F)c2F)c(-c2ccnc(N)n2)s1` [Dabrafenib], the tumor growth result in series [3] is “retarded the growth of tumors; also recorded: retarded tumor growth”.

Turning to `CCCOc1ccc([C@H]2[C@H](C(=O)O)[C@@H](c3ccc4c(c3)OCO4)CN2CC(=O)Nc2c(CC)cccc2CC)cc1` [A192621, (2R,3R,4S)-4-(1,3-benzodioxol-5-yl)-1-[2-(2,6-diethylanilino)-2-oxoethyl]-2-(4-propoxyphenyl) pyrrolidine-3-carboxylic acid], in series [4], the CNS melanoma tumors entry was “shrinks CNS melanoma tumors”, the brain melanoma metastases result is “shrinks brain melanoma metastases” and the survival result was “increases survival”.

Values taken from US12533390B2, “Methods and compositions for treatment of Endothelin B receptor expressing tumors” (ENB Therapeutics, Inc., priority 2015, dated 2026).
